Laboratory results as given in PubChem BioAssay (NCI).
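Tested at 5 concentrations; 48 h exposure; 96-well plates; endpoints linearly interpolated, else capped at highest concentration. TGI is the concentration that stops growth completely.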

Legend:
Experiment in all cases: DTP human tumour cell line panel, 48 h
OVCAR-5 ovarian = tested on: OVCAR-5 ovarian
UO-31 renal = tested on: UO-31 renal
NCI-H23 lung = tested on: NCI-H23 lung
PC-3 prostate = tested on: PC-3 prostate
HL-60(TB) leukemia = tested on: HL-60(TB) leukemia
SK-MEL-28 melanoma = tested on: SK-MEL-28 melanoma
786-0 renal = tested on: 786-0 renal
SF-539 CNS = tested on: SF-539 CNS
HCT-15 colon = tested on: HCT-15 colon
MDA-N = tested on: MDA-N
RXF 393 renal = tested on: RXF 393 renal

Row | Compound | TGI (OVCAR-5 ovarian) [µM] | TGI (UO-31 renal) [µM] | TGI (NCI-H23 lung) [µM] | TGI (PC-3 prostate) [µM] | TGI (HL-60(TB) leukemia) [µM] | TGI (SK-MEL-28 melanoma) [µM] | TGI (786-0 renal) [µM] | TGI (SF-539 CNS) [µM] | TGI (HCT-15 colon) [µM] | TGI (MDA-N) [µM] | TGI (RXF 393 renal) [µM]
1 | CC1(O)CC23CC(O)C4(O)C(CC(O)C4(C)C)C(C)(O)C2CCC1C3O (stereo unspecified) | > 100 | > 100 | > 100 | > 100 | > 100 | > 100 | > 100 | > 100 | > 100 |  | 
2 | C/C(=C\C(=O)O)C(=O)N(C)c1ccccc1I | > 100 | > 100 | > 100 | > 100 |  | > 100 | > 100 |  | > 100 | > 100 | > 100
3 | CCOC(=O)CSc1nc(-c2ccc(Cl)cc2)c(C#N)c(=O)[nH]1 | > 100 | > 100 | > 100 | > 100 | 71.9 | > 100 | > 100 | > 100 | > 100 |  | > 100
4 | CC1CC(C)(C)CC(OCCN2CCCCC2)(c2ccccc2)C1 (stereo unspecified) | 18.2 | 20.6 | 32.6 | 25.6 | 27.9 | 29.7 | 22.6 | 29.4 | 27.5 |  | 23.8
5 | CN=C1C=C(/N=C2/C=C(N/C(=C\C#N)C(C)(C)O)OC2(C)C)OC1(C)C | > 100 | 82.3 | > 100 | > 100 | 5.83 | > 100 | > 100 | > 100 | > 100 | > 100 | 
6 | CCOC(=O)c1c(-c2ccc(Cl)cc2)c(C#N)c(=S)n(C2OC(COC(C)=O)C(OC(C)=O)C(OC(C)=O)C2OC(C)=O)c1C (stereo unspecified) | > 100 |  | > 100 | > 100 | > 100 | > 100 | > 100 | > 100 | > 100 | > 100 | > 100
7 | CC(C)(C)[C@H]1NC(=O)CN1C(=O)OCc1ccccc1 | > 100 | > 100 | > 100 | > 100 | > 100 | > 100 | > 100 | > 100 | > 100 |  | > 100
8 | CC1OC23CCCCC2C(C#N)(C#N)C1(C#N)C(=N)O3 (stereo unspecified) | 52.6 |  | 52.7 | 69.2 | 22.1 | 56 | 28.6 | 45.1 | 37.6 | 35.8 | 44.5
9 | O=c1[nH]c2ccccc2c(=O)n1/N=C\c1ccccc1O | > 100 | > 100 | > 100 | > 100 | > 100 | > 100 | > 100 | > 100 | > 100 | > 100 | 
10 | COC1CCC(OS(C)(=O)=O)C(C)O1 (stereo unspecified) | > 10 |  | > 10 | > 10 | > 10 | > 10 | > 10 | > 10 | > 10 | > 10 | > 10
11 | O=c1[nH]c(NCCCCCO)nc2nc[nH]c12 | > 100 | > 100 | > 100 | > 100 | > 100 |  | > 100 |  | > 100 | > 100 | 
